Results published in PubChem BioAssay AID330 (DTP/NCI, 2004).
Values joined by “and” are separate entries in the source; they are usually repeats but may differ in a detail not shown here. Identical values can stand only once. Toxic doses and inconclusive results are not listed. How the source made its calls: active means survival T/C of 150% or more; inactive means T/C below 125% in these data.

System: P388 leukemia ip, CD2F1 mice, survival T/C
Assay: NCI In Vivo Anticancer Drug Screen. Data for tumor model P388 Leukemia (intraperitoneal) in CD2F1 (CDF1) mice
Details: endpoint: median survival time, higher = longer survival
Procedure, shortened: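 Mice carrying the transplanted tumor received test compound or vehicle. Survival was recorded in each group, and the value is the treated-group measurement divided by that of the vehicle-treated control group.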

[1] = dose: 15.0 mg/kg/injection, schedule: Q01DX005 (ip), vehicle: saline with Tween-80
[2] = dose: 30.0 mg/kg/injection, schedule: Q01DX005 (ip), vehicle: saline with Tween-80
[3] = dose: 60.0 mg/kg/injection, schedule: Q01DX005 (ip), vehicle: saline with Tween-80
[4] = dose: 50.0 mg/kg/injection, schedule: Q01DX009 (ip), vehicle: saline with Tween-80
[5] = dose: 100.0 mg/kg/injection, schedule: Q01DX009 (ip), vehicle: saline with Tween-80
[6] = dose: 200.0 mg/kg/injection, schedule: Q01DX009 (ip), vehicle: saline with Tween-80
[7] = dose: 50.0 mg/kg/injection, schedule: Q01DX009 (ip), vehicle: Klucel (hydroxypropylcellulose) (HPC)
[8] = dose: 100.0 mg/kg/injection, schedule: Q01DX009 (ip), vehicle: Klucel (hydroxypropylcellulose) (HPC)
[9] = dose: 200.0 mg/kg/injection, schedule: Q01DX009 (ip), vehicle: Klucel (hydroxypropylcellulose) (HPC)
[10] = dose: 50.0 mg/kg/injection, schedule: Q01DX005 (ip), vehicle: Klucel (hydroxypropylcellulose) (HPC)
[11] = dose: 50.0 mg/kg/injection, schedule: Q01DX005 (ip), vehicle: saline with Tween-80
[12] = dose: 100.0 mg/kg/injection, schedule: Q01DX005 (ip), vehicle: saline with Tween-80
[13] = dose: 100.0 mg/kg/injection, schedule: Q01DX005 (ip), vehicle: Klucel (hydroxypropylcellulose) (HPC)
[14] = dose: 200.0 mg/kg/injection, schedule: Q01DX005 (ip), vehicle: Klucel (hydroxypropylcellulose) (HPC)
[15] = dose: 120.0 mg/kg/injection, schedule: Q01DX005 (ip), vehicle: saline with Tween-80

Measured: T/C

O=S(=O)(CCCCl)SCCCCl
inactive: dose: 7.5 mg/kg/injection, schedule: Q01DX005 (ip), vehicle: saline with Tween-80 104 % of control | [1] 105 % of control | [2] 103 % of control and 105 % of control | [3] 96 % of control

CN(C)C1C(O)C2Oc3c(cc(O)c4c3C(=O)c3cc5c(c(O)c3C4=O)C(NC3CCCCC3)CC(C)(O)C5)C(C)(O2)C1O (centres undefined)
inactive: dose: 2.5 mg/kg/injection, schedule: Q01DX009 (ip), vehicle: other 102 % of control | dose: 5.0 mg/kg/injection, schedule: Q01DX009 (ip), vehicle: other 105 % of control | dose: 10.0 mg/kg/injection, schedule: Q01DX009 (ip), vehicle: other 112 % of control | dose: 40.0 mg/kg/injection, schedule: Q01DX009 (ip), vehicle: other 121 % of control

O=C(NC(=NC(=Nc1ccc([N+](=O)[O-])cc1)c1ccccc1)c1ccccc1)c1ccccc1
inactive: [4] 93 % of control | [5] 99 % of control | [6] 90 % of control

COc1ccc(C(=O)Nc2cccnc2)cc1
inactive: [7] 98 % of control | [8] 100 % of control | [9] 98 % of control

CN(C)CCn1c2nc(=O)[nH]c(=O)c-2nc2ccccc21
inactive: dose: 6.25 mg/kg/injection, schedule: Q01DX005 (ip), vehicle: Klucel (hydroxypropylcellulose) (HPC) 93 % of control | dose: 12.5 mg/kg/injection, schedule: Q01DX005 (ip), vehicle: Klucel (hydroxypropylcellulose) (HPC) 100 % of control | dose: 25.0 mg/kg/injection, schedule: Q01DX005 (ip), vehicle: Klucel (hydroxypropylcellulose) (HPC) 101 % of control | [10] 98 % of control

COc1cc(-c2cc(C(=O)O)c3cc4ccccc4cc3n2)cc(OC)c1OC
inactive: [7] 113 % of control | [8] 110 % of control | [9] 104 % of control

C=C1C(=O)OC2C1CC/C(C)=C/CCC1(C)OC21 (centres undefined)
inactive: dose: 8.75 mg/kg/injection, schedule: Q01DX009 (ip), vehicle: Klucel (hydroxypropylcellulose) (HPC) 106 % of control | dose: 17.5 mg/kg/injection, schedule: Q01DX009 (ip), vehicle: Klucel (hydroxypropylcellulose) (HPC) 106 % of control

CN=C(c1ccc(NC(=O)c2ccc(C(=O)Nc3ccc(C(=NC)N4CCOCC4)cc3)c(Cl)c2)cc1)N1CCOCC1
inactive: dose: 0.19 mg/kg/injection, schedule: Q01DX005 (ip), vehicle: saline 97 % of control | dose: 0.39 mg/kg/injection, schedule: Q01DX005 (ip), vehicle: saline 100 % of control | dose: 0.78 mg/kg/injection, schedule: Q01DX005 (ip), vehicle: saline 100 % of control | dose: 1.56 mg/kg/injection, schedule: Q01DX005 (ip), vehicle: saline 100 % of control | dose: 6.25 mg/kg/injection, schedule: Q01DX005 (ip), vehicle: saline 107 % of control

CSc1cccc(NC(=O)N2CCCCC2C)c1 (centres undefined)
inactive: [4] 100 % of control | [5] 92 % of control | [6] 100 % of control

CCC(C1SC(=S)NC1=O)C1SC(=S)NC1=O (centres undefined)
inactive: [11] 92 % of control | [12] 97 % of control

C/C=C/COCC
inactive: dose: 100.0 mg/kg/injection, schedule: Q04DX003 (ip), vehicle: saline with Tween-80 101 % of control | dose: 200.0 mg/kg/injection, schedule: Q04DX003 (ip), vehicle: saline with Tween-80 106 % of control | dose: 400.0 mg/kg/injection, schedule: Q04DX003 (ip), vehicle: saline with Tween-80 108 % of control

CCOC(=O)C(CCC(OCC)OCC)C(=O)OCC
inactive: dose: 50.0 mg/kg/injection, schedule: Q01DX009 (ip), vehicle: saline 103 % of control | dose: 100.0 mg/kg/injection, schedule: Q01DX009 (ip), vehicle: saline 102 % of control | dose: 200.0 mg/kg/injection, schedule: Q01DX009 (ip), vehicle: saline 101 % of control

O=[N+]([O-])c1ccc(C(Nc2nncs2)Nc2nncs2)c([N+](=O)[O-])c1
inactive: [10] 97 % of control | [13] 96 % of control | [14] 100 % of control

CN(C)C=Nc1ccccc1C#N
inactive: [4] 105 % of control | [5] 106 % of control | [6] 97 % of control

Nc1nccc(CCc2ccccc2)n1
inactive: [3] 101 % of control | [15] 95 % of control

CC(=O)C1=C(O)C(=O)N(c2ccccc2)C1=O
inactive: [11] 97 % of control | [12] 102 % of control | dose: 200.0 mg/kg/injection, schedule: Q01DX005 (ip), vehicle: saline with Tween-80 100 % of control

CC[N+](C)(C)c1ccccc1
inactive: dose: 6.25 mg/kg/injection, schedule: Q04DX002 (ip), vehicle: saline 102 % of control | dose: 12.5 mg/kg/injection, schedule: Q04DX002 (ip), vehicle: saline 105 % of control | dose: 25.0 mg/kg/injection, schedule: Q04DX002 (ip), vehicle: saline 99 % of control and 102 % of control

O=C1CS(=O)(=O)C(c2ccccc2F)N1N1C(=O)CS(=O)(=O)C1c1ccccc1F (centres undefined)
inactive: [1] 98 % of control and 87 % of control | [2] 89 % of control | [3] 87 % of control and 89 % of control

CC(C(=O)O)c1ccc2c(c1)Cc1ccccc1-2 (centres undefined)
inactive: dose: 12.5 mg/kg/injection, schedule: Q01DX009 (ip), vehicle: saline with Tween-80 108 % of control | dose: 25.0 mg/kg/injection, schedule: Q01DX009 (ip), vehicle: saline with Tween-80 106 % of control | [4] 105 % of control and 86 % of control

COc1cc(C(CC(C)=O)c2cc3c(cc2OC(C)=O)OCO3)cc(OC)c1OC(C)=O (centres undefined)
inactive: [3] 105 % of control | [15] 89 % of control

O=C1OC(=O)C2C3C=CC(C3)C12 (centres undefined)
inactive: dose: 12.5 mg/kg/injection, schedule: Q01DX009 (ip), vehicle: saline sonified 100 % of control | dose: 25.0 mg/kg/injection, schedule: Q01DX009 (ip), vehicle: saline sonified 100 % of control | dose: 50.0 mg/kg/injection, schedule: Q01DX009 (ip), vehicle: saline sonified 100 % of control

CC(=O)OCCNc1n[nH]c(=O)c2ccncc12
inactive: [2] 95 % of control | [3] 93 % of control | [15] 101 % of control | dose: 240.0 mg/kg/injection, schedule: Q01DX005 (ip), vehicle: saline with Tween-80 113 % of control

CCCCCCCCN(CCCCCCCC)C(=N)c1ccnc2ccccc12
inactive: dose: 6.25 mg/kg/injection, schedule: Q01DX005 (ip), vehicle: saline with Tween-80 101 % of control | dose: 12.5 mg/kg/injection, schedule: Q01DX005 (ip), vehicle: saline with Tween-80 101 % of control | dose: 25.0 mg/kg/injection, schedule: Q01DX005 (ip), vehicle: saline with Tween-80 97 % of control | [11] 96 % of control

COC(=O)/C=N/NS(=O)(=O)c1ccc(C)cc1
inactive: dose: 12.5 mg/kg/injection, schedule: Q01DX009 (ip), vehicle: other 102 % of control | dose: 25.0 mg/kg/injection, schedule: Q01DX009 (ip), vehicle: other 102 % of control | dose: 50.0 mg/kg/injection, schedule: Q01DX009 (ip), vehicle: other 100 % of control | dose: 100.0 mg/kg/injection, schedule: Q01DX009 (ip), vehicle: other 100 % of control

CC(=O)OCC1OC(n2cnc3c(N)ncnc32)C2OC(C)(C)OC12 (centres undefined)
inactive: [10] 101 % of control | [13] 97 % of control

CN(C)CCCNc1ccc(O)c2sc3ccccc3c(=O)c12
inactive: dose: 3.13 mg/kg/injection, schedule: Q01DX009 (ip), vehicle: saline 101 % of control | dose: 6.25 mg/kg/injection, schedule: Q01DX009 (ip), vehicle: saline 103 % of control | dose: 12.5 mg/kg/injection, schedule: Q01DX009 (ip), vehicle: saline 103 % of control | dose: 25.0 mg/kg/injection, schedule: Q01DX009 (ip), vehicle: saline 100 % of control

CC(OC(=O)C1C2C=CC(C2)C1C(=O)O)c1cccnc1 (centres undefined)
inactive: [10] 97 % of control | [13] 100 % of control | [14] 98 % of control

Nc1ccc2ccccc2c1-c1c(N)ccc2ccccc12
inactive: dose: 6.25 mg/kg/injection, schedule: Q01DX009 (ip), vehicle: Klucel (hydroxypropylcellulose) (HPC) 109 % of control | dose: 12.5 mg/kg/injection, schedule: Q01DX009 (ip), vehicle: Klucel (hydroxypropylcellulose) (HPC) 91 % of control | dose: 25.0 mg/kg/injection, schedule: Q01DX009 (ip), vehicle: Klucel (hydroxypropylcellulose) (HPC) 102 % of control | [7] 111 % of control
